These compounds were tested against T1, dopamine D2 receptor (Homo sapiens, UniProt P14416) (assay: GTPS scintillation proximity assay (GTPS-SPA), CHO_D2 membranes). Details: up to the highest concentration tested in the assay (3 μM).
T1 construct: expressed in transfected cells; host or cells: Chinese Hamster Ovary (CHO) cells, membranes
T1 sequence (P14416 whole entry): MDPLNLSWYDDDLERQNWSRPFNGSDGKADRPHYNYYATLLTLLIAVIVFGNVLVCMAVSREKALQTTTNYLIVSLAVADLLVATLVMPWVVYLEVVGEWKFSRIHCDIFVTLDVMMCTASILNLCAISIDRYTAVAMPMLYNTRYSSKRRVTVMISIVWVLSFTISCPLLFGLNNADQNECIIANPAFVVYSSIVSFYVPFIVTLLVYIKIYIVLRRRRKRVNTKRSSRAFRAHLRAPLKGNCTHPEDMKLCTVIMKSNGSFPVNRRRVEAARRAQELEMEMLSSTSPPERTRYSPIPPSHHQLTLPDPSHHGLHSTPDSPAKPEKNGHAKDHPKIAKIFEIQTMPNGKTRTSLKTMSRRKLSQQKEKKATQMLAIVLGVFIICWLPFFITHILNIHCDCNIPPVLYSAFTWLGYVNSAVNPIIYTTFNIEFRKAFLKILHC
Format: biochemical
Method: (§1) Functional potency of compounds of this invention can be measured by the following GTPS scintillation proximity assay (GTPS-SPA). Cells used in the study are Chinese Hamster Ovary (CHO) Cells. • Cell Line • CHO_D2 • CHO_D3 • Dopamine CHO D3 (Biocat no 1060) transduced with bacmam G0 G-protein (Biocat no 97886)
(§2) All steps are performed at 4° C. Cell membranes are prepared as follows. Cell pellets are resuspended in 10 volumes of 50 mM HEPES, 1 mM EDTA pH 7.4, using KOH. Cells are homogenised within a glass waring blender for 2 bursts of 15 secs in 200 mls of buffer (50 mM HEPES, 1 mM leupeptin, 25 μg/ml bacitracin, 1 mM EDTA, 1 mM PMSF, 2 μM Pepstatin A). (the latter 2 reagents added as fresh ×100 and ×500 stocks respectively in ethanol). The blender is plunged into ice for 5 mins after the first burst and 10-40 mins after the final burst to allow foam to dissipate. The material is then spun at 500 g for 20 mins and the supernatant spun for 36 mins at 48.000 g. The pellet is resuspended in the same buffer as above but without PMSF and Pepstatin A. The material is then forced through a 0.6 mm needle, made up to the required volume, (usually ×4 the volume of the original cell pellet), aliquoted and stored frozen at −80° C.
(§3) The final top concentration of test drug is 3 μM in the assay and 11 points serial dilution curves 1:4 in 100% DMSO are carried out using a Biomek FX. The test drug at 1% (0.5 ul) total assay volume (TAV) is added to a solid, white Greiner polypropylene 384-well assay plate. 50% TAV (25 μl) of precoupled (for 60 mins at RT) membranes, 5 μg/well, and Wheatgerm Agglutinin Polystyrene Scintillation Proximity Assay beads (RPNQ0260, Amersham), 0.25 mg/well, in 20 mM HEPES (pH 7.4, 100 mM NaCl, 10 mM MgCl2), 60 μg/mL saponin and 30 uM GDP is added. The third addition is a 20% TAV (10 ul) addition of either buffer, (agonist format) or EC80 final assay concentration of agonist, Quinelorane, prepared in assay buffer (antagonist format). The assay is started by the addition of 29% TAV (15 ul) of GTP[35S] 0.38 nM final (37 MBq/mL, 1160 Ci/mmol, Amersham). After all additions assay plates are spun down for 1 min at 1,000 rpm. The final assay cocktail ([…]) is incubated at room temperature to equilibrate for 3-6 hours before reading on a ViewLux™ (613/55 filter) luminescence imager 5 min/plate.
(§4) The effect of the test drug over the basal generates fpKi values of test drug are calculated from the IC50 generated by “antagonist format” experiment, using Cheng & Prusoff equation: fKi=IC50/1+([A]/EC50) where: [A] is the concentration of the agonist Quinelorane in the assay and EC50 is the Quinelorane EC50 value obtained in the same experiment. fpKi is defined as −logfKi. • pKi results are only estimated to be accurate to about 0.3-0.5.
In the case of `Cc1nc(C)c(-c2cn(CCCCN3C[C@@H]4C[C@]4(c4ccc(C(F)(F)F)cc4)C3)c(=O)[nH]c2=O)o1.Cl` [Example E42, 5-(2,4-dimethyl-1,3-oxazol-5-yl)-1-(4-{(1S,5R)-1-[4-(trifluoromethyl)phenyl]-3-azabicyclo[3.1.0]hex-3-yl}butyl)-2,4(1H,3H)-pyrimidinedione hydrochloride], the “activity in the D2 GTPS-SPA assay” value is reported as “no activity”. For `Cl.Cl.O=c1[nH]c(=O)n(CCCN2C[C@@H]3C[C@]3(c3ccc(C(F)(F)F)cc3)C2)cc1-c1cccnc1F` [Example E25, 5-(2-fluoro-3-pyridinyl)-1-(3-{(1S,5R)-1-[4-(trifluoromethyl)phenyl]-3-azabicyclo[3.1.0]hex-3-yl}propyl)-2,4(1H,3H)-pyrimidinedione dihydrochloride], the “activity in the D2 GTPS-SPA assay” value was “no activity”. For `Cc1nc(F)ccc1-c1cn(CCCN2C[C@@H]3C[C@]3(c3ccc(C(F)(F)F)cc3)C2)c(=O)[nH]c1=O.Cl.Cl` [Example E36, 5-(6-fluoro-2-methyl-3-pyridinyl)-1-(3-{(1S,5R)-1-[4-(trifluoromethyl)phenyl]-3-azabicyclo[3.1.0]hex-3-yl}propyl)-2,4(1H,3H)-pyrimidinedione dihydrochloride], the “activity in the D2 GTPS-SPA assay” value was “no activity”. For `Cc1ccc(-c2cn(CCCN3C[C@@H]4C[C@]4(c4ccc(C(F)(F)F)cc4)C3)c(=O)[nH]c2=O)cn1.Cl.Cl` [Example E40, 5-(6-methyl-3-pyridinyl)-1-(3-{(1S,5R)-1-[4-(trifluoromethyl)phenyl]-3-azabicyclo[3.1.0]hex-3-yl}propyl)-2,4(1H,3H)-pyrimidinedione dihydrochloride], the “activity in the D2 GTPS-SPA assay” value was “no activity”. With `Cl.Cl.O=c1[nH]c(=O)n(CCCN2C[C@@H]3C[C@]3(c3ccc(C(F)(F)F)cc3)C2)cc1-c1ccncc1F` [Example E44, 5-(3-fluoro-4-pyridinyl)-1-(3-{(1S,5R)-1-[4-(trifluoromethyl)phenyl]-3-azabicyclo[3.1.0]hex-3-yl}propyl)-2,4(1H,3H)-pyrimidinedione dihydrochloride] the “activity in the D2 GTPS-SPA assay” value was “no activity”. In the case of `Cl.O=c1[nH]c(=O)n(CCCN2C[C@@H]3C[C@]3(c3ccc(C(F)(F)F)cc3F)C2)cc1-c1cccs1` [Example E12, 1-(3-{(1S,5R)-1-[2-fluoro-4-(trifluoromethyl)phenyl]-3-azabicyclo[3.1.0]hex-3-yl}propyl)-5-(2-thienyl)-2,4(1H,3H)-pyrimidinedione hydrochloride], the “activity in the D2 GTPS-SPA assay” value is reported as “no activity”. `Cc1ccccc1-c1cn(CCCN2C[C@@H]3C[C@]3(c3ccc(C(F)(F)F)cc3)C2)c(=O)[nH]c1=O.Cl` [Example E31, 5-(2-methylphenyl)-1-(3-{(1S,5R)-1-[4-(trifluoromethyl)phenyl]-3-azabicyclo[3.1.0]hex-3-yl}propyl)-2,4(1H,3H)-pyrimidinedione hydrochloride] was tested, and the “activity in the D2 GTPS-SPA assay” value was “no activity”. With `Cc1ccc(-c2cn(CCCN3C[C@@H]4C[C@]4(c4ccc(C(F)(F)F)cc4)C3)c(=O)[nH]c2=O)c(Cl)n1.Cl.Cl` [Example E63, 5-(2-chloro-6-methyl-3-pyridinyl)-1-(3-{(1S,5R)-1-[4-(trifluoromethyl)phenyl]-3-azabicyclo[3.1.0]hex-3-yl}propyl)-2,4(1H,3H)-pyrimidinedione dihydrochloride] the “activity in the D2 GTPS-SPA assay” value was “no activity”. `Cc1ncccc1-c1cn(CCCCN2C[C@@H]3C[C@]3(c3ccc(C(F)(F)F)cc3)C2)c(=O)[nH]c1=O.Cl.Cl` [Example E29, 5-(2-methyl-3-pyridinyl)-1-(4-{(1S,5R)-1-[4-(trifluoromethyl)phenyl]-3-azabicyclo[3.1.0]hex-3-yl}butyl)-2,4(1H,3H)-pyrimidinedione dihydrochloride] was tested, and the “activity in the D2 GTPS-SPA assay” value was “no activity”. In the case of `Cl.Cl.O=c1[nH]c(=O)n(CCCN2C[C@@H]3C[C@]3(c3ccc(C(F)(F)F)cc3)C2)cc1-c1ccc(F)nc1` [Example E20, 5-(6-fluoro-3-pyridinyl)-1-(3-{(1S,5R)-1-[4-(trifluoromethyl)phenyl]-3-azabicyclo[3.1.0]hex-3-yl}propyl)-2,4(1H,3H)-pyrimidinedione dihydrochloride], the “activity in the D2 GTPS-SPA assay” value is reported as “no activity”. With `Cc1ccncc1-c1cn(CCCN2C[C@@H]3C[C@]3(c3ccc(C(F)(F)F)cc3)C2)c(=O)[nH]c1=O.Cl.Cl` [Example E64, 5-(4-methyl-3-pyridinyl)-1-(3-{(1S,5R)-1-[4-(trifluoromethyl)phenyl]-3-azabicyclo[3.1.0]hex-3-yl}propyl)-2,4(1H,3H)-pyrimidinedione dihydrochloride] the “activity in the D2 GTPS-SPA assay” value was “no activity”. In the case of `Cc1ccc(-c2cn(CCCN3C[C@@H]4C[C@]4(c4ccc(C(F)(F)F)cc4)C3)c(=O)[nH]c2=O)c(F)n1.Cl.Cl` [Example E35, 5-(2-fluoro-6-methyl-3-pyridinyl)-1-(3-{(1S,5R)-1-[4-(trifluoromethyl)phenyl]-3-azabicyclo[3.1.0]hex-3-yl}propyl)-2,4(1H,3H)-pyrimidinedione dihydrochloride], the “activity in the D2 GTPS-SPA assay” value is reported as “no activity”. For `Cc1nc(C)c(-c2cn(CCCN3C[C@@H]4C[C@]4(c4ccc(C(F)(F)F)cc4)C3)c(=O)[nH]c2=O)o1.Cl` [Example E41, 5-(2,4-dimethyl-1,3-oxazol-5-yl)-1-(3-{(1S,5R)-1-[4-(trifluoromethyl)phenyl]-3-azabicyclo[3.1.0]hex-3-yl}propyl)-2,4(1H,3H)-pyrimidinedione hydrochloride], the “activity in the D2 GTPS-SPA assay” value was “no activity”.

What follows are compounds tested against T2, dopamine D3 receptor (Homo sapiens, UniProt P35462) (assay: GTPS scintillation proximity assay (GTPS-SPA), CHO_D3 membranes, antagonist format). Details: not given.
T2 construct: host or cells: Chinese Hamster Ovary (CHO) cells, membranes
T2 sequence (P35462 whole entry, species assumed): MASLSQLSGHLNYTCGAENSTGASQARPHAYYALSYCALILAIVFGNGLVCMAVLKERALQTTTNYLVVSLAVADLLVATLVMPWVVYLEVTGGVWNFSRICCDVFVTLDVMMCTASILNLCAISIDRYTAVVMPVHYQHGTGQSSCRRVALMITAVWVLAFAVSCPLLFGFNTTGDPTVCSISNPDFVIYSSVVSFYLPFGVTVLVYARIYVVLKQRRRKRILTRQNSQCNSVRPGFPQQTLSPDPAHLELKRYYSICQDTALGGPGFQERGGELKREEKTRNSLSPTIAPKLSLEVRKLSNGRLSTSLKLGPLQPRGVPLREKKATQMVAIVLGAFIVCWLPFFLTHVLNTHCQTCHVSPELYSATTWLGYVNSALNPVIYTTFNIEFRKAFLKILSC
Format: biochemical
Method: as §1, §2, §3, §4
In the case of `Cl.Cl.O=c1[nH]c(=O)n(CCCN2C[C@@H]3C[C@]3(c3ccc(C(F)(F)F)cc3)C2)cc1-c1cc(Cl)cnc1F` [Example E43, 5-(5-chloro-2-fluoro-3-pyridinyl)-1-(3-{(1S,5R)-1-[4-(trifluoromethyl)phenyl]-3-azabicyclo[3.1.0]hex-3-yl}propyl)-2,4(1H,3H)-pyrimidinedione dihydrochloride], the “Selectivity for D3 over D2 receptors” value is reported as 100 fold. `Cc1ccsc1-c1cn(CCCCN2C[C@@H]3C[C@]3(c3ccc(C(F)(F)F)cc3)C2)c(=O)[nH]c1=O.Cl` [Example E16, 5-(3-methyl-2-thienyl)-1-(4-{(1S,5R)-1-[4-(trifluoromethyl)phenyl]-3-azabicyclo[3.1.0]hex-3-yl}butyl)-2,4(1H,3H)-pyrimidinedione hydrochloride] was tested, and the “Selectivity for D3 over D2 receptors” value was 100 fold. With `Cl.O=c1[nH]c(=O)n(CCCN2C[C@@H]3C[C@]3(c3ccc(C(F)(F)F)cc3)C2)cc1-c1ccccc1` [Example E9, 5-phenyl-1-(3-{(1S,5R)-1-[4-(trifluoromethyl)phenyl]-3-azabicyclo-[3.1.0]hex-3-yl}propyl)-2,4(1H,3H)-pyrimidinedione hydrochloride] the “Selectivity for D3 over D2 receptors” value was 199 fold. For `Cc1cc(-c2cn(CCCCN3C[C@@H]4C[C@]4(c4ccc(C(F)(F)F)cc4)C3)c(=O)[nH]c2=O)ccn1.Cl.Cl` [Example E28, 5-(2-methyl-4-pyridinyl)-1-(4-{(1S,5R)-1-[4-(trifluoromethyl)phenyl]-3-azabicyclo[3.1.0]hex-3-yl}butyl)-2,4(1H,3H)-pyrimidinedione dihydrochloride], the “Selectivity for D3 over D2 receptors” value was 316 fold. In the case of `Cl.Cl.O=c1[nH]c(=O)n(CCCN2C[C@@H]3C[C@]3(c3ccc(C(F)(F)F)cc3)C2)cc1-c1cccnc1` [Example E27, 5-(3-pyridinyl)-1-(3-{(1S,5R)-1-[4-(trifluoromethyl)phenyl]-3-azabicyclo[3.1.0]hex-3-yl}propyl)-2,4(1H,3H)-pyrimidinedione dihydrochloride], the “Selectivity for D3 over D2 receptors” value is reported as 251 fold.

— patent publication US7727988B2, “Azabicyclo[3.1.0]hex-3-yl}alkyl)pyrimidinedione” (Glaxo Group Limited, priority 2006, dated 2010)
